Assays:
[1] = tested on: blood coagulum; test: Fibrinolytic activity, Fearnley method (lysis of blood coagulum in toto); assay type: in vivo; details: Oryctolagus cuniculus, ip, 0.5 h, percent decrease of coagulum weight after 30 minutes at 37° C.; 25 mg/kg intraperitoneal, rabbits; read-out: fibrinolytic activity (FL)
Description: Determination of the fibrinolytic activity
The determination of the fibrinolytic activity was made following the Fearnley method for the lysis of the blood coagulum in toto.
0.2 ml of blood were withdrawn from the marginal vein of the ear of rabbits treated in the same way as the previously described tests, before and after an intraperitoneal injection of the compounds under test at a dose level of 25 mg/kg for each compound.
The blood samples were placed in test tubes containing 1.7 ml of phosphate buffer at pH 7.4 and 0.1 ml of thrombin (Roche Topostasin ® per os) at 50 units NIH/ml, and maintained in an ice bath. The test tubes were maintained at said temperature for 30 minutes and thereupon were transferred to a temperature controlled water bath at 37° C.
The fibrinolytic activity was determined as a percent decrease of the coagulum weight, measured after incubation for 30 minutes at 37° C.
(§1) In tables I and II are further indicated for each compound the method of preparation; the melting point PF in °C; the platelet antiaggregant activity (AAP) expressed in terms of DI50 in mg/kg, referred to ADP and thrombin respectively; the antithrombin activity (AT) in %; the anticoagulant activity (AC) in %; the fibrinolytic activity (FL) in %; the acute toxicity (LD50) in mice, intraperitoneally, in mg/kg, as previously defined.

[2] = tested on: CaCl2-induced plasma coagulation; test: Anticoagulant activity on PRP, Hartert's thromboelastograph; assay type: in vivo, New Zealand rabbits; details: Oryctolagus cuniculus, ip, percent increase of total time for coagulum formation (r+k) vs before treatment; 25 mg/kg intraperitoneal, rabbits; read-out: anticoagulant activity (AC)
Description: Determination of the anticoagulant activity
The anticoagulant activity was also assessed on PRP of animals treated as described in the preceding methods, by using again Hartert's thromboelastograph method.
The plasma coagulation was induced by adding to 0.25 ml PRP a 1.29% solution of CaCl2.
The anticoagulant effect was determined as a percent increase of the total time for the coagulum formation (the index r+k can be obtained from the thromboelastograph diagram) in a plasma after treatment, referred to the same index obtained before the treatment (control). Again the dose level was 25 mg/kg for each compound under examination, intraperitoneally.
as §1

[3] = tested on: platelet aggregation induced by ADP; test: Platelet aggregation inhibitory activity in vivo (Born aggregometer), ADP-induced; parameters: species or system New Zealand rabbits; details: Oryctolagus cuniculus, Platelet, ip, dose for 50% inhibition of ADP-induced aggregation curve; rabbits, intraperitoneal, blood 2, 4 and 6 hours after injection; read-out: platelet antiaggregant activity (AAP), DI50, ADP
Description: (§2) Determination of the platelet aggregation inhibitory activity in vivo
(§3) The activity of the above described compounds as platelet antiaggregant was tested in vivo on rabbits, by the Born aggregometer. The inhibition of the aggregation curve induced by ADP and thrombin was assessed with different drug concentrations according to the platelet reactivity. New Zealand rabbits which had been held fasting for 12 hours with water ad libitum, were anaesthetized with Nembutal in a dose of 35 mg/kg intramuscolarly. The blood was withdrawn from the carotidal arthery, before (control) and 2, 4, and 6 hours after the intraperitoneal injection of the compounds under examination (at the dose indicated below). The blood samples were taken up in a 3.8% aqueous solution of sodium citrate in a ratio 10:1 and thereupon centrifuged at 1500 r.p.m. for 10 minutes, for obtaining a PRP (platelet rich plasma). A portion of such a plasma was thereupon centrifuged at 8000 r.p.m. for 10 minutes, for obtaining a PPP (platelet lean plasma) which was used for zeroing the measuring apparatus.
(§4) From the results of said experiments, there was determined the dose of each product in mg/kg body weight able to induce a 50% inhibition of the aggregation curve (DI50) after treatment, referred to the curve obtained by the same control plasma before treatment.
as §1

[4] = tested on: thrombin-induced coagulation of platelet rich plasma; test: Antithrombin activity on PRP, Hartert's thromboelastograph; assay type: in vivo, New Zealand rabbits; details: Oryctolagus cuniculus, Platelet, ip, percent decrease of index ma/[r+k] vs before treatment; 20 mg/kg intraperitoneal, rabbits
Description: Determination of the antithrombin activity
The antithrombin activity on the PRP (platelet rich plasma) obtained following the above described method was assessed by Hartert's thromboelastograph (Hellige model). The coagulation was induced by adding to 0.25 ml of plasma 0.06 ml of a thrombin solution (Roche Topostasin® per os) at 60 units*, pH 7.4**. The antithrombin activity was assessed in terms of a percent decrease of the index (ma/[r+k]) which was calculated from the thromboelastograph diagram, wherein r is the reaction time, k is the speed of the coagulum formation and ma is the maximum spread of the tong, after an intraperitoneal treatment with a dose of 20 mg/kg of each compound under examination, referred to the same index obtained before the treatment (control).
as §1

[5] = Acute toxicity, intraperitoneal; details: mouse, in vivo, ip, male Swiss mice, intraperitoneal, 7 days observation; preliminary, by graphic interpolation; read-out: acute toxicity (LD50 / DL50)
Description: The acute toxicity limit was determined intraperitoneally on male Swiss mice, weighing 20±2 g, held fasting for 18 hours with water ad libitum.
The animals were maintained under observation for 7 days of treatment, by examining the general symptomatology and noting the death sequency. The preliminary DL50 in mg/kg body weight was calculated by graphic interpolation of the results as obtained.
as §1

[6] = tested on: platelet aggregation induced by thrombin; test: Platelet aggregation inhibitory activity in vivo (Born aggregometer), thrombin-induced; parameters: species or system New Zealand rabbits; details: Oryctolagus cuniculus, Platelet, ip, dose for 50% inhibition of thrombin-induced aggregation curve; rabbits, intraperitoneal, blood 2, 4 and 6 hours after injection; read-out: platelet antiaggregant activity (AAP), DI50, Thrombin
Description: as §2, §3, §4, §1

Structure (SMILES) | fibrinolytic activity (percent decrease of coagulum weight) at 25 mg/kg [1] [%] | change in vivo at 25 mg/kg [2] [%] | ED50 [3] [mg/kg] | inhibition in vivo at 20 mg/kg [4] [%] | LD50 at 168 h [5] [mg/kg] | ED50 [6] [mg/kg]
C=CCOc1c(Cl)cc(C(=O)NCc2cccnc2)cc1C(=O)NCc1cccnc1 [Example 25] | 25.9 | 15.5 | 59.5 | 40.6 | 184 | 35.4
COc1cc(C(=O)NCc2cccnc2)cc(C(=O)NCc2cccnc2)c1OC1CCCCC1 [Example 21] | 28.3 | 12.5 | 35.8 | 32.5 | 378 | 24.5
CC(C)=COc1ccc(C(=O)NCc2ccncc2)cc1C(=O)NCc1ccncc1 [Example 65] | 26.5 | 23.8 | 36.7 | 34.2 | 240 | 24.5
CC=CCOc1ccc(C(=O)NCc2cccnc2)cc1C(=O)NCc1cccnc1 [Example 11] | 44.2 | 13.5 | 25.3 | 52.3 | 178 | 18.6
COc1c(Cl)cc(C(=O)NCc2ccncc2)cc1C(=O)NCc1ccncc1 [Example 66] | 20.2 | 13.6 | 67.2 | 25 | 437 | 42.5
C=CCCOc1ccc(C(=O)NCc2cccnc2)cc1C(=O)NCc1cccnc1 [Example 8] | 42.1 | 14.2 | 35.5 | 50.6 | 362 | 25.7
CCCOc1ccc(C(=O)NCc2ccncc2)cc1C(=O)NCc1ccncc1 [Example 59] | 32.8 | 20.6 | 25.2 | 39.1 | 623 | 18.1
CCCCOc1c(Cl)cc(C(=O)NCc2cccnc2)cc1C(=O)NCc1cccnc1 [Example 26] | 28.4 | 22.2 | 43.7 | 33.5 | 205 | 30.2
CC(C)(C)COc1c(Cl)cc(C(=O)NCc2cccnc2)cc1C(=O)NCc1cccnc1 [Example 28] | 25.5 | 19.6 | 45.3 | 27.9 | 215 | 31
O=C(NCc1cccnc1)c1cc(Cl)c(O)c(C(=O)NCc2cccnc2)c1 [Example 32] | 17.3 | 11.8 | 50.2 | 22.2 | 425 | 33.6
CC(C)Oc1ccc(C(=O)NCc2ccncc2)cc1C(=O)NCc1ccncc1 [Example 62] | 21.7 | 12 | 46.8 | 26.5 | 618 | 32.3
CC(C)=COc1ccc(C(=O)NCc2cccnc2)cc1C(=O)NCc1cccnc1 [Example 55] | 29.5 | 19.2 | 28.2 | 32.5 | 338 | 20.5
C=CC(C)Oc1ccc(C(=O)NCc2cccnc2)cc1C(=O)NCc1cccnc1 (stereo not drawn) [Example 54] | 35.2 | 18.7 | 32.3 | 46.3 | 355 | 21.2
C=C(C)COc1ccc(C(=O)N(CCC)Cc2ccncc2)cc1C(=O)N(CCC)Cc1ccncc1 [Example 70] | 39.3 | 18.9 | 30.6 | 48.2 | 360 | 20.8
CCCCCOc1c(Cl)cc(C(=O)NCc2cccnc2)cc1C(=O)NCc1cccnc1 [Example 24] | 6.4 | 16 | 41.3 | 24.4 | 371 | 35.6
C=CCCCCOc1ccc(C(=O)NCc2cccnc2)cc1C(=O)NCc1cccnc1 [Example 10] | 43.9 | 12.6 | 29.4 | 52.6 | 194 | 21.1
C=C(C)COc1ccc(C(=O)N(Cc2cccnc2)C(C)C)cc1C(=O)N(Cc1cccnc1)C(C)C [Example 56] | 38.1 | 18.6 | 29.1 | 47.3 | 352 | 21.4
CC(C)Oc1ccc(C(=O)NCc2cccnc2)cc1C(=O)NCc1cccnc1 [Example 12] | 20.2 | 12.7 | 50.2 | 25.6 | 615 | 30.9
C=CCOc1c(OC)cc(C(=O)NCc2cccnc2)cc1C(=O)NCc1cccnc1 [Example 17] | 23 | 14.1 | 51.7 | 36 | 298 | 32.6
C=CCOc1ccc(C(=O)NCc2ccncc2)cc1C(=O)NCc1ccncc1 [Example 61] | 45 | 15.6 | 28.6 | 52.8 | 392 | 19.5
CC(C)CCOc1c(Cl)cc(C(=O)NCc2cccnc2)cc1C(=O)NCc1cccnc1 [Example 27] | 28.8 | 23.8 | 40 | 35.1 | 195 | 27.9
COc1ccc(C(=O)N(C)Cc2cccnc2)cc1C(=O)N(C)Cc1cccnc1 [Example 39] | 19.2 | 12.5 | 59.8 | 26.6 | 610 | 42

From patent US4294833A, “Substituted 4-hydroxy-isophthalic acid picolylamides having a pharmaceutical activity in thromboembolic disorders” (Societa Italo-Britannica, priority 1977, dated 1981)
